Measured values published in patent US20180140578A1, “METHODS AND COMPOSITIONS FOR THE DIAGNOSIS AND SELECTIVE TREATMENT OF CANCER” (Board of Regents of the University of Texas System, priority 2016, published 2018).
pIC50: −log10 of the molar value.

Columns and labels:
[1] = test system: indisulam resistant HCT-116 clones; experiment: Cell viability assay, indisulam resistant clones; type: cell-based, human
Method: The methods for generating a population of barcoded HCT-116 cells were described before (20). […] Clones that appeared after the selection was then expanded and barcode genotyped to identify six clones with unique barcodes. […] Source data for exome sequencing data is available under NCBI SRA accession SRP068238. Bortezomib resistant clones were isolated by selection with 5 nM bortezomib, and MLN4924 resistant clones with 40 nM MLN4924.
12-point dose responses were performed on 96-well assay plates with cell plating (1500-4000 cell per well) on day 1, compound addition on day 2, and survival measurement on day 5. Compounds were diluted in DMSO before adding to the cells. Final DMSO concentration was 0.5%. Cell survival assay was performed using CellTiter-Glo Luminescent Cell Viability Assay kit (Promega) that measures cellular ATP content. Luminescence was recorded by EnVison multimode plate reader (Perkin Elmer). IC50 was determined with GraphPad Prism using baseline correction (by normalizing to DMSO control), the asymmetric (five parameter) equation and least squares fit.

[2] = advanced stage patients with solid tumors; monotherapy; cited from earlier work
[3] = test system: DCAF15-3xFLAG and mutant RBM39Δ150 (M265L, E271Q, P272S); experiment: RBM39Δ150 pulldown assay, mutant RBM39; type: binding, human; conditions: at concentrations as high as 10 μM
Method: RBM39 lacking the first 150 amino acids after the start codon (RBM39Δ150) was cloned into the pFastBac1 (Life Technologies) vector. Site-directed Mutagenesis of RBM39 was performed using Q5 site-directed mutagenesis kit (NEB). DCAF15-GST (C-terminal GST tag) and DDB1 were also cloned into pFastBac1. The production of baculovirus was carried out following vendor's instructions. Protein was expressed in SF9 cells by infection with each protein specific baculovirus, and cells were harvested 48 hr later and frozen in liquid nitrogen. For purification of RBM39Δ150, frozen cells were pulverized by cryomill and resuspended in lysis buffer (40 mM Tris, pH 7.5, 225 mM NaCl, 1× […] Protease inhibitor). The lysate was passed through a 22 gauge needle 2 times followed by ultracentrifugation at 25000 rpm for 30 min. Clarified lysate was incubated with Ni-NTA agarose (Qiagen) for 30 min with rotation at 4° C. Resin and bound protein were washed with wash buffer 1 (40 mM Tris, pH 7.5, 225 mM NaCl) followed by wash buffer 2 (40 mM Tris, pH 7.5, 20 mM imidazole, 225 mM NaCl). Proteins were eluted with elution buffer (40 mM Tris, pH 7.5, 300 mM imidazole, 225 mM NaCl) and concentrated to 0.5 ml. Concentrated proteins were then fractionated on Superdex 200 Increase 10/300 GL (GE Healthcare). […]

[4] = biological target: T1, DCAF15-3xFLAG and RBM39Δ150 (Homo sapiens, UniProt Q14498+Q66K64); experiment: RBM39Δ150 pulldown assay; type: binding
T1 construct: Full-length cDNAs encoding CUL4A, CUL4B, DCAF15, and DDB1 were cloned into pLVX IRES Puro; made in house; host or cells: RBM39Δ150: Sf9 (baculovirus); DCAF15-3xFLAG: anti-FLAG beads from HCT-116 or 293T cells stably expressing it
T1 sequence (Q66K64 whole entry, stated change not applied): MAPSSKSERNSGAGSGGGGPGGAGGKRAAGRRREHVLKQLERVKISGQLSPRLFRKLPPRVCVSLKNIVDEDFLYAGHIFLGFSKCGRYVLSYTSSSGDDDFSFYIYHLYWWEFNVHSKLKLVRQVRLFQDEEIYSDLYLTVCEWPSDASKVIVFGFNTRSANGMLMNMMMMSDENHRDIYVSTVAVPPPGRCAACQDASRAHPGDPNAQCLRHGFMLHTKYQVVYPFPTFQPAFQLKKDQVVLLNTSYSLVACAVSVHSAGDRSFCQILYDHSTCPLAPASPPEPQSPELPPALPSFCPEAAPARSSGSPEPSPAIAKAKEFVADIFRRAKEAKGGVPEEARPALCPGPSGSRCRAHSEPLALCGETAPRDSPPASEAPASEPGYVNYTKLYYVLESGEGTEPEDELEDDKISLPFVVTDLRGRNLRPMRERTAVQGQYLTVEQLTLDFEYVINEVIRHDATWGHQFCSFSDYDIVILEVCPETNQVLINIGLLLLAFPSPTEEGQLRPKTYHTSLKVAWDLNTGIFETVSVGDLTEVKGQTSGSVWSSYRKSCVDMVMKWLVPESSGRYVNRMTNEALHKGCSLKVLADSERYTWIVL
T1 sequence (Q14498 151-530 limits assumed, stated change not applied): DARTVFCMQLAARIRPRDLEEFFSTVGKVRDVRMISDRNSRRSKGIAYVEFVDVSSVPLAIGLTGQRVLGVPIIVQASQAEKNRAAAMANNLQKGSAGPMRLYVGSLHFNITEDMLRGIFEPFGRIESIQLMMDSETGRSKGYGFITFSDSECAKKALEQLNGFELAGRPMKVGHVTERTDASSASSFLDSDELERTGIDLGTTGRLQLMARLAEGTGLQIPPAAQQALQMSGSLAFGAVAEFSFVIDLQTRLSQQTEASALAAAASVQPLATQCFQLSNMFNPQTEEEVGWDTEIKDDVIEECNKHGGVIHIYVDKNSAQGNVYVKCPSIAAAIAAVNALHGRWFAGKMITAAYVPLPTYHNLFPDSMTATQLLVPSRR
T1 sequence (Q16531 whole entry partner): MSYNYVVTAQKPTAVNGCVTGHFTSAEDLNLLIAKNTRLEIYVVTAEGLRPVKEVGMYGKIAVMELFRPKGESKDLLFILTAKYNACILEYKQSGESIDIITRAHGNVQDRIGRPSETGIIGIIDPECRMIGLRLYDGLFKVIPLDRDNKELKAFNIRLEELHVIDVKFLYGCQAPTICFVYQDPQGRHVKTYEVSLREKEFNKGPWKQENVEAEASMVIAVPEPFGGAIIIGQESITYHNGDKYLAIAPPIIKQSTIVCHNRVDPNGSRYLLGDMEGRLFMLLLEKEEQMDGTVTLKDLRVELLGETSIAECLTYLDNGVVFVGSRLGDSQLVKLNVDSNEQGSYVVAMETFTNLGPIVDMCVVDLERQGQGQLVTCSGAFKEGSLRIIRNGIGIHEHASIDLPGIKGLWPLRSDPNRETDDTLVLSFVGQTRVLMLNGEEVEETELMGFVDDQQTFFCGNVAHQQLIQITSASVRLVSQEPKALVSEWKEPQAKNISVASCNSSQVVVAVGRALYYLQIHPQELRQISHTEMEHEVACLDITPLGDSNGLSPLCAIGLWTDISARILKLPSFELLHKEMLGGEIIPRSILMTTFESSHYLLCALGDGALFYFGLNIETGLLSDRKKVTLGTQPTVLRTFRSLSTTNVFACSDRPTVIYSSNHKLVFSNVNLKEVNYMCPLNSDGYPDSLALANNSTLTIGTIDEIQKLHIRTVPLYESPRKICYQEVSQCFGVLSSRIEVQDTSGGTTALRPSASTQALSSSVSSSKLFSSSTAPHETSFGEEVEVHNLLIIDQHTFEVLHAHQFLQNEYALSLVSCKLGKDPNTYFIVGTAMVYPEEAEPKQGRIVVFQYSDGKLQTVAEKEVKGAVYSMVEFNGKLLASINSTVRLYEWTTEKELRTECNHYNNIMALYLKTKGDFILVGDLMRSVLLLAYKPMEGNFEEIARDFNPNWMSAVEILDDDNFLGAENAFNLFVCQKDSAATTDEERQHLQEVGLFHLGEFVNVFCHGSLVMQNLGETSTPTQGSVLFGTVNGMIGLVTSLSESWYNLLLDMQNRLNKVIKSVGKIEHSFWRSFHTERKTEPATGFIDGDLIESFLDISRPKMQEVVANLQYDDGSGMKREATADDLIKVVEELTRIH
Method: RBM39 lacking the first 150 amino acids after the start codon (RBM39Δ150) was cloned into the pFastBac1 (Life Technologies) vector. Site-directed Mutagenesis of RBM39 was performed using Q5 site-directed mutagenesis kit (NEB). DCAF15-GST (C-terminal GST tag) and DDB1 were also cloned into pFastBac1. The production of baculovirus was carried out following vendor's instructions. Protein was expressed in SF9 cells by infection with each protein specific baculovirus, and cells were harvested 48 hr later and frozen in liquid nitrogen. For purification of RBM39Δ150, frozen cells were pulverized by cryomill and resuspended in lysis buffer (40 mM Tris, pH 7.5, 225 mM NaCl, 1× […] Protease inhibitor). The lysate was passed through a 22 gauge needle 2 times followed by ultracentrifugation at 25000 rpm for 30 min. Clarified lysate was incubated with Ni-NTA agarose (Qiagen) for 30 min with rotation at 4° C. Resin and bound protein were washed with wash buffer 1 (40 mM Tris, pH 7.5, 225 mM NaCl) followed by wash buffer 2 (40 mM Tris, pH 7.5, 20 mM imidazole, 225 mM NaCl). Proteins were eluted with elution buffer (40 mM Tris, pH 7.5, 300 mM imidazole, 225 mM NaCl) and concentrated to 0.5 ml. Concentrated proteins were then fractionated on Superdex 200 Increase 10/300 GL (GE Healthcare). RBM39Δ150 and mutants eluted at 14.8 ml after injection and were stored at −80° C. in 40 mM Tris, pH 7.5, 225 mM NaCl. For purification of DCAF15-GST/DDB1, Sf9 cells co-infected with DCAF15-GST and DDB1 baculoviruses were lysed in PBS supplemented with 0.1% NP40, 1× […] Protease inhibitors, and 0.5 mM PMSF. The lysate was passed through a 22 gauge needle 2 times followed by centrifugation at 7000 rpm for 15 min. Clarified lysate was incubated with Glutathione Sepharose 4B resin (GE healthcare) for 30 min with rotation at 4° C. Resin was washed with PBS for three times before elution with 50 mM Tris, 10 mM glutathione, pH 8.
HCT-116 cells stably expressing DDB1-3xFLAG, CUL4A-3xFLAG, CUL4B-3xFLAG, or to DCAF15-3xFLAG were lysed in 1×PBS, 0.1% NP40, and 1× […] protease inhibitor (1 ml per […] plate). […]

[5] = biological target: T2, RBM39-3xFLAG with DDA1, DDB1, CUL4A, CUL4B (Homo sapiens, UniProt Q14498+Q66K64); experiment: Co-immunoprecipitation of RBM39-3xFLAG from treated cells; type: cell-based; conditions: cells treated with indisulam but not DMSO
T2 construct: endogenous in cells; host or cells: HCT-116 RBM39-3xFLAG knock-in cells (treated cells in A90)
Method: Anti-Flag M2 antibody (Sigma-Aldrich) was coupled to Dynabeads M-270 epoxy beads (Life Technologies) at the ratio of 10 μg of antibody/mg beads. […] Frozen cells were then pulverized in the a cryomill (Retsch) with one 25 mm steel ball and five cycles of three min at 25 Hz with intermittent cooling in liquid nitrogen. […] The lysates were centrifuged at 8000 g for 5 min at 4° C. 12 mg of conjugated Anti-Flag magnetic beads were mixed with clarified lysates for 5 min at 4° C. on a rotating platform, followed by three washes with IP buffer. Bound proteins were eluted with 1 mg/ml 3xFLAG peptide, followed by SDS-PAGE on a 10% Bis Tris gel. After brief electrophoresis, bands containing all the proteins were cut with clean blades. For western blotting of co-immunoprecipitated proteins, anti-DDA1 (ProteinTech, 14995-1-AP, 1:1000), anti-DDB1 (Abcam, ab109027, 1;10000), anti-CUL4A (Cell Signaling, 2699, 1:1000), anti-CUL4B (ProteinTech, 12916-1-AP, 1:1000) were used.

NS(=O)(=O)c1ccc(S(=O)(=O)Nc2cccc3c(Cl)c[nH]c23)cc1 [Indisulam, indisulam]
pIC50 ([1]; Homo sapiens, HCT-116): 5.03
sensitivity of indisulam resistant clones ([1]; five of six clones, concentrations as high as 50): insensitive
times less sensitive than the parental HCT-116 cells ([1]; sixth indisulam resistant clone): 17 times
stable disease [2]: 17-36 % of patients
recruitment of M265L or E271Q variants of RBM39Δ150 to DCAF15 [3]: failed to recruit
co-purification of DCAF15 with RBM39Δ150 ([4]; in the presence of indisulam, not DDB1, CUL4A or CUL4B): co-purified
indisulam concentration at which RBM39Δ150-DCAF15 complex was apparent ([4]; wild type RBM39Δ150): 0.10 µM
co-purification of RBM39-3xFLAG with DDA1, DDB1, CUL4A, CUL4B [5]: co-purified
